Patent US20160120863A1, “SLC2A TRANSPORTER INHIBITORS” (IOMET PHARMA LTD., priority 2013, published 2016)

What was measured:
human GLUT2 = target: T1, human GLUT2 (Homo sapiens, UniProt P11168); test: [3H]-deoxy-D-glucose uptake assay, GLUT2; format: cell-based; conditions: [3H]-deoxy-D-glucose uptake in HEK293 cells stably expressing human GLUT2
T1 construct: expressed in transfected cells
T1 sequence (P11168 1-524): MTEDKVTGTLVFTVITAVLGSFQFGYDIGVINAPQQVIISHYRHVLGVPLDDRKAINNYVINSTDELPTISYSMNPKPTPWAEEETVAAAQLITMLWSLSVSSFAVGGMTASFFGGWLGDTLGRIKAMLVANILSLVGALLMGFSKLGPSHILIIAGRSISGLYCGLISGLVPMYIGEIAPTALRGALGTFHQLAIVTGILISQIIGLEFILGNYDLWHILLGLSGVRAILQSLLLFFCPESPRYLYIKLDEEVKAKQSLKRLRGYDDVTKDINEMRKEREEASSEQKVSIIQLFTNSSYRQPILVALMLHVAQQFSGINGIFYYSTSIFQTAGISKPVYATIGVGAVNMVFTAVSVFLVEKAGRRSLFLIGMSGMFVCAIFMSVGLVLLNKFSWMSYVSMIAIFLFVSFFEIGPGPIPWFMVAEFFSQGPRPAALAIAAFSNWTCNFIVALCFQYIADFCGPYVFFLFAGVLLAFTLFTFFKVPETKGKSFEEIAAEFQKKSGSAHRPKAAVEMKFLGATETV
Experimental: HEK293 cells were engineered to stably express either human GLUT1, GLUT2, GLUt3 or GLUT4 by transfection with the pReceiver-Lv105 plasmid, containing either hGLUT1, hGLUT2, hGLUT3, or hGLUT4 gene constructs with lipofectamine 2000, hGLUT1- hGLUT2- hGLUT3- or hGLUT4-overexpressing polyclonal populations were isolated under purinomycin selective pressure (1 μg/ml) and maintained in Dulbecco's modified Eagle's medium supplemented with 1 μg/ml purinomycin+10% foetal bovine serum (FBS).
60,000 cells per well were seeded overnight into poly-D-lysine coasted 96-well plates. […] 90 μl of test compounds were added in glucose-free uptake buffer and cells were incubated at 37° C. for 30 min.
Cells were then washed twice with ice-cold PBS and 100 μl of Microscint-20 was added per well. Glucose uptake was quantified with a scintillation counter. The half maximal inhibitory concentration (IC50) (a measure of the effectiveness of the test compound in inhibiting glucose uptake) was determined.

human GLUT1 = target: T2, human GLUT1 (Homo sapiens, UniProt P11166); test: [3H]-deoxy-D-glucose uptake assay, GLUT1; format: cell-based; conditions: [3H]-deoxy-D-glucose uptake in HEK293 cells stably expressing human GLUT1
T2 construct: expressed in transfected cells
T2 sequence (P11166 1-492): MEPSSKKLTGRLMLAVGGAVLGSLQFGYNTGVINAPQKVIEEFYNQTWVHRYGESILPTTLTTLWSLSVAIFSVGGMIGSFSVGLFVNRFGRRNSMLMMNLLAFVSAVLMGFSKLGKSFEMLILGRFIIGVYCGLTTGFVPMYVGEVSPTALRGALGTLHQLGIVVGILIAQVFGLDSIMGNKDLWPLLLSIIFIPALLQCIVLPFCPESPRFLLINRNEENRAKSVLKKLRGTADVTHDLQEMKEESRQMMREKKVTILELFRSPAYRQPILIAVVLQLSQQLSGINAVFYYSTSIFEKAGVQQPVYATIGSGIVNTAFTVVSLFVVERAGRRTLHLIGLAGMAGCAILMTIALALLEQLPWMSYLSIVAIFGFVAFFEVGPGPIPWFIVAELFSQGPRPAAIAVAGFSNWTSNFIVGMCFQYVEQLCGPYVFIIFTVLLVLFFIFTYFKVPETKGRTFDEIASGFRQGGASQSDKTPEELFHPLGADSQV
Outline: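 HEK293 cells stably overexpressing human GLUT1 or GLUT2, seeded at 60,000 per well, treated with compounds in glucose-free uptake buffer for 30 min at 37 °C. [3H]-deoxy-D-glucose uptake quantified by scintillation counting after ice-cold PBS washes; IC50 determined.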

SMILES | GLUT2 pIC50 (human GLUT2) | GLUT1 pIC50 (human GLUT1)
N#Cc1ccccc1-c1ccc2nc(-c3ccc(Cl)cc3)c(CN3CCOCC3)n2c1 [Compound 91] | +++ (pIC50 ≧ 6.00) | +++ (pIC50 ≧ 6.00)
COc1ccc(C(=O)N2CCN(Cc3c(-c4ccc(Cl)cc4)nc4ccc(-c5ccccc5)cn34)CC2)cc1 [Compound 126] | +++ (pIC50 ≧ 6.00) | +++ (pIC50 ≧ 6.00)
O=C(Nc1cccc(F)c1)N1CCN(Cc2c(-c3ccc(Cl)cc3)nc3ccc(-c4ccccc4)cn23)CC1 [Compound 127] | +− (pIC50 < 4.00) | +− (pIC50 < 4.00)
O=C(C1COC1)N1CCN(Cc2c(-c3ccc(Cl)cc3)nc3ccc(-c4ccccc4)cn23)CC1 [Compound 171] | +++ (pIC50 ≧ 6.00) | +++ (pIC50 ≧ 6.00)
CC(C)c1cn2c(CN3CCOCC3)c(-c3ccc(Cl)cc3)nc2cn1 [Compound 217] | +++ (pIC50 ≧ 6.00) | +++ (pIC50 ≧ 6.00)
CC(=O)N1CCN(Cc2c(-c3ccc(Cl)cc3)nc3cnc(-c4ccccc4C#N)cn23)CC1 [Compound 224] | +++ (pIC50 ≧ 6.00) | +++ (pIC50 ≧ 6.00)
O=C1CCN(Cc2c(-c3ccc(Cl)cc3)nc3ccc(-c4ccccc4)cn23)CCN1 [Compound 227] | +++ (pIC50 ≧ 6.00) | +++ (pIC50 ≧ 6.00)
CN1CCN(Cc2c(-c3ccc(Cl)cc3)nc3ccc(-c4ccccc4)cn23)CCC1=O [Compound 232] | +++ (pIC50 ≧ 6.00) | +++ (pIC50 ≧ 6.00)
N#Cc1cccc(F)c1-c1ccc2nc(-c3ccc(Cl)cc3)c(CN3CCOCC3)n2c1 [Compound 236] | +++ (pIC50 ≧ 6.00) | +++ (pIC50 ≧ 6.00)
CN1CCN(Cc2c(-c3ccc(Cl)cc3)nc3ccc(-c4ccccc4C#N)cn23)CC1=O [Compound 247] | +++ (pIC50 ≧ 6.00) | +++ (pIC50 ≧ 6.00)
CCC(=O)N1CCN(Cc2c(-c3ccc(Cl)cc3)nc3cnc(C4CC4)cn23)CC1 [Compound 253] | +++ (pIC50 ≧ 6.00) | +++ (pIC50 ≧ 6.00)
CC(=O)N1CCN(Cc2c(-c3ccc(Cl)cc3)nc3ccc(NS(C)(=O)=O)cn23)CC1 [Compound 259] | ++ (pIC50 5.00-5.99) | +++ (pIC50 ≧ 6.00)
Clc1ccc(-c2nc3cnc(C4CC4)cn3c2CN2CCn3ncnc3C2)cc1 [Compound 261] | +++ (pIC50 ≧ 6.00) | +++ (pIC50 ≧ 6.00)
N#Cc1ccccc1-c1cn2c(CN3CCOCC3)c(-c3ccc(Cl)cc3)nc2cn1 [Compound 269] | ++ (pIC50 5.00-5.99) | +++ (pIC50 ≧ 6.00)
Clc1ccc(-c2nc3ccc(C4COC4)cn3c2CN2CCOCC2)cc1 [Compound 298] | +− (pIC50 < 4.00) | ++ (pIC50 5.00-5.99)
O=C(Cc1c(-c2ccc(Cl)cc2)nc2ccc(-c3ccccc3)cn12)N1CCOCC1 [Compound 301] | ++ (pIC50 5.00-5.99) | +− (pIC50 < 4.00)

The next lines start with the values.

GLUT2 pIC50 (human GLUT2) | GLUT1 pIC50 (human GLUT1) | SMILES
+++ (pIC50 ≧ 6.00) | +++ (pIC50 ≧ 6.00) | O=C1CN(Cc2c(-c3ccc(Cl)cc3Cl)nc3cnc(C4CC4)cn23)CCN1 [Compound 272]
++ (pIC50 5.00-5.99) | ++ (pIC50 5.00-5.99) | O=C1CN(Cc2c(-c3ccc(Cl)cc3)nc3ccc(-c4ncon4)cn23)CCN1 [Compound 278]
++ (pIC50 5.00-5.99) | +++ (pIC50 ≧ 6.00) | CC(=O)N1CCN(Cc2c(-c3ccc(Cl)cc3)nc3ccc(N(C)S(C)(=O)=O)cn23)CC1 [Compound 292]
+++ (pIC50 ≧ 6.00) | +++ (pIC50 ≧ 6.00) | O=C1CN(Cc2c(-c3ccc(Cl)cc3)nc3ccc(-c4ccccn4)cn23)CCN1 [Compound 294]
+++ (pIC50 ≧ 6.00) | +++ (pIC50 ≧ 6.00) | CC(=O)N1CCN(Cc2c(-c3ccc(Cl)cc3)nc3ccc(-c4ccccn4)cn23)CC1 [Compound 295]
+++ (pIC50 ≧ 6.00) | +++ (pIC50 ≧ 6.00) | Clc1ccc(-c2nc3ccc(-c4ccccn4)cn3c2CN2CCn3ncnc3C2)c(Cl)c1 [Compound 299]
++ (pIC50 5.00-5.99) | +− (pIC50 < 4.00) | CCOC(=O)Cc1c(-c2ccc(Cl)cc2)nc2ccc(-c3ccccc3)cn12 [Compound 302]
+− (pIC50 < 4.00) | ++ (pIC50 5.00-5.99) | CN(c1ccc2nc(-c3ccc(Cl)cc3)c(CN3CCNCC3)n2c1)S(C)(=O)=O [Compound 304]
+− (pIC50 < 4.00) | +− (pIC50 < 4.00) | c1ccc(-c2ccc3nc(C4CCOCC4)c(CN4CCOCC4)n3c2)cc1 [Compound 305]
++ (pIC50 5.00-5.99) | +++ (pIC50 ≧ 6.00) | COCC(=O)N1CCN(Cc2c(-c3ccc(Cl)cc3Cl)nc3ccc(-c4ncon4)cn23)CC1 [Compound 307]
+++ (pIC50 ≧ 6.00) | +++ (pIC50 ≧ 6.00) | CC(C)(O)C(=O)N1CCN(Cc2c(-c3ccc(Cl)cc3)nc3ccc(-c4ccccc4)cn23)CC1 [Compound 308]
+++ (pIC50 ≧ 6.00) | +++ (pIC50 ≧ 6.00) | CC(=O)N1CCN(Cc2c(-c3ccc(Cl)cc3Cl)nc3ccc(-c4ncon4)cn23)CC1 [Compound 312]
+− (pIC50 < 4.00) | ++ (pIC50 5.00-5.99) | COCCS(=O)(=O)Nc1ccc2nc(-c3ccc(Cl)cc3)c(CN3CCN(C(C)=O)CC3)n2c1 [Compound 315]
++ (pIC50 5.00-5.99) | ++ (pIC50 5.00-5.99) | CC(=O)N1CCN(Cc2c(-c3ccc(Cl)cc3)nc3ccc(NS(=O)(=O)C(C)C)cn23)CC1 [Compound 317]
++ (pIC50 5.00-5.99) | +++ (pIC50 ≧ 6.00) | CC(=O)N1CCN(Cc2c(-c3ccc(Cl)cc3)nc3ccc(NS(=O)(=O)C4CC4)cn23)CC1 [Compound 318]
++ (pIC50 5.00-5.99) | +++ (pIC50 ≧ 6.00) | CCCS(=O)(=O)Nc1ccc2nc(-c3ccc(Cl)cc3)c(CN3CCN(C(C)=O)CC3)n2c1 [Compound 319]
+++ (pIC50 ≧ 6.00) | +++ (pIC50 ≧ 6.00) | CC(=O)N1CCN(Cc2c(-c3ccc(Cl)cc3)nc3ccc(N4CCCS4(=O)=O)cn23)CC1 [Compound 320]
+++ (pIC50 ≧ 6.00) | +++ (pIC50 ≧ 6.00) | Clc1ccc(-c2nc3cnc(C4CC4)cn3c2CN2CCn3ncnc3C2)c(Cl)c1 [Compound 323]
++ (pIC50 5.00-5.99) | +++ (pIC50 ≧ 6.00) | CN(c1ccc2nc(-c3ccc(Cl)cc3)c(CN3CCn4ncnc4C3)n2c1)S(C)(=O)=O [Compound 324]
++ (pIC50 5.00-5.99) | +++ (pIC50 ≧ 6.00) | CN(c1ccc2nc(-c3ccc(Cl)cc3)c(CN3CCNC(=O)C3)n2c1)S(C)(=O)=O [Compound 325]
++ (pIC50 5.00-5.99) | +++ (pIC50 ≧ 6.00) | CC(=O)N1CCN(Cc2c(-c3ccc(Cl)cc3)nc3ccc(N(C)S(=O)(=O)C4CC4)cn23)CC1 [Compound 327]
++ (pIC50 5.00-5.99) | ++ (pIC50 5.00-5.99) | Fc1cncc(F)c1-c1ccc2nc(-c3ccc(Cl)cc3)c(CN3CCOCC3)n2c1 [Compound 328]
+++ (pIC50 ≧ 6.00) | +++ (pIC50 ≧ 6.00) | Clc1ccc(-c2nc3ccc(-c4ncon4)cn3c2CN2CCn3ncnc3C2)c(Cl)c1 [Compound 329]
++ (pIC50 5.00-5.99) | +++ (pIC50 ≧ 6.00) | CS(=O)(=O)N1CCN(Cc2c(-c3ccc(Cl)cc3Cl)nc3cnc(C4CC4)cn23)CC1 [Compound 330]
